Laboratory results: the supplement of paper PMC10307832

Experiments:
Experiment in all cases: relative viability (nuclei count vs DMSO), 5 days (fraction); higher = more cells survive
IMD-0354 + Dasatinib = compound: O=C(Nc1cc(C(F)(F)F)cc(C(F)(F)F)c1)c1cc(Cl)ccc1O [IMD-0354] + Cc1nc(Nc2ncc(C(=O)Nc3c(C)cccc3Cl)s2)cc(N2CCN(CCO)CC2)n1 [Dasatinib] (partner 0.075 µM)
Method in brief: (§1)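 Relative viability was taken as the ratio of nuclei in treated wells to nuclei in vehicle wells. Lung cancer cell lines in 1536-well plates received compounds by pin tool one day after seeding, either one drug alone or a fixed anchor-drug dose plus five library-drug doses (not always all listed) in √10 steps. Nuclei were counted on 4× images after 5 days of treatment, and values are medians of duplicate plates.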

IMD-0354 + Luminespib = compound: O=C(Nc1cc(C(F)(F)F)cc(C(F)(F)F)c1)c1cc(Cl)ccc1O [IMD-0354] + CCNC(=O)c1noc(-c2cc(C(C)C)c(O)cc2O)c1-c1ccc(CN2CCOCC2)cc1 [Luminespib] (partner 0.01 µM)
Method in brief: as §1

IMD-0354 + Navitoclax = compound: O=C(Nc1cc(C(F)(F)F)cc(C(F)(F)F)c1)c1cc(Cl)ccc1O [IMD-0354] + CC1(C)CCC(c2ccc(Cl)cc2)=C(CN2CCN(c3ccc(C(=O)NS(=O)(=O)c4ccc(N[C@H](CCN5CCOCC5)CSc5ccccc5)c(S(=O)(=O)C(F)(F)F)c4)cc3)CC2)C1 [Navitoclax] (partner 0.5 µM)
Method in brief: as §1

CX-5461 + Crizotinib = compound: Cc1cnc(CNC(=O)c2c(=O)c3ccc(N4CCCN(C)CC4)nc3n3c2sc2ccccc23)cn1 [CX-5461] + C[C@@H](Oc1cc(-c2cnn(C3CCNCC3)c2)cnc1N)c1c(Cl)ccc(F)c1Cl [Crizotinib] (partner 1 µM)
Method in brief: as §1

Row | Cell Line | relative viability (IMD-0354 + Dasatinib; first compound 0.04 µM) | relative viability (IMD-0354 + Dasatinib; first compound 0.1265 µM) | relative viability (IMD-0354 + Dasatinib; first compound 0.4 µM) | relative viability (IMD-0354 + Dasatinib; first compound 1.265 µM) | relative viability (IMD-0354 + Dasatinib; first compound 4 µM) | relative viability (IMD-0354 + Luminespib; first compound 0.04 µM) | relative viability (IMD-0354 + Luminespib; first compound 0.1265 µM) | relative viability (IMD-0354 + Luminespib; first compound 0.4 µM) | relative viability (IMD-0354 + Luminespib; first compound 1.265 µM) | relative viability (IMD-0354 + Luminespib; first compound 4 µM) | relative viability (IMD-0354 + Navitoclax; first compound 0.04 µM) | relative viability (IMD-0354 + Navitoclax; first compound 0.1265 µM) | relative viability (IMD-0354 + Navitoclax; first compound 0.4 µM) | relative viability (IMD-0354 + Navitoclax; first compound 1.265 µM) | relative viability (IMD-0354 + Navitoclax; first compound 4 µM) | relative viability (CX-5461 + Crizotinib; first compound 0.01 µM) | relative viability (CX-5461 + Crizotinib; first compound 0.03162 µM) | relative viability (CX-5461 + Crizotinib; first compound 0.1 µM) | relative viability (CX-5461 + Crizotinib; first compound 0.3162 µM) | relative viability (CX-5461 + Crizotinib; first compound 1 µM)
1 | NCI-H647 | 0.263 | 0.0872 | 0.132 | 0.0483 | 0.0895 | 0.303 | 0.261 | 0.166 | 0.111 | 0.0881 | 1.47 | 1.57 | 0.521 | 0.198 | 0.068 | 1.02 | 1.18 | 1.05 | 1.06 | 0.401
2 | NCI-H727 | 0.325 | 0.4 | 0.326 | 0.256 | 0.314 | 0.344 | 0.295 | 0.371 | 0.191 | 0.302 | 0.407 | 0.319 | 0.423 | 0.165 | 0.205 | 0.695 | 0.835 | 0.692 | 0.767 | 0.703
3 | NCI-H838 | 0.239 | 0.321 | 0.256 | 0.239 | 0.214 | 0.571 | 0.246 | 0.27 | 0.217 | 0.244 | 1.16 | 1.21 | 0.468 | 0.314 | 0.251 | 0.973 | 0.87 | 0.843 | 0.347 | 0.641
4 | NCI-H1355 | 0.761 | 0.718 | 0.574 | 0.198 | 0.294 | 0.769 | 0.585 | 0.567 | 0.333 | 0.32 | 1.03 | 0.932 | 0.82 | 0.916 | 0.185 | 1.06 | 1.24 | 1.04 | 1.07 | 1.09
5 | NCI-H1437 | 0.528 | 0.381 | 0.255 | 0.0882 | 0.144 | 1.21 | 0.899 | 0.45 | 0.191 | 0.202 | 1.17 | 1.13 | 0.443 | 0.152 | 0.244 | 1 | 0.948 | – | 0.885 | 0.791
6 | NCI-H1650 | 0.368 | 0.33 | 0.183 | 0.142 | 0.137 | 0.215 | 0.208 | 0.171 | 0.196 | 0.176 | 1.42 | 1.06 | 0.682 | 0.149 | 0.171 | 1.08 | 0.996 | – | 0.948 | 0.149
7 | NCI-H1651 | 0.515 | 0.363 | 0.26 | 0.0542 | 0.0748 | 0.984 | 0.557 | 0.289 | 0.247 | 0.153 | 1.05 | 1.16 | 0.337 | 0.052 | 0.0654 | 0.829 | 0.862 | 0.76 | 0.967 | 0.812
8 | NCI-H1666 | 0.94 | 0.912 | 0.651 | 0.345 | 0.351 | 1.06 | 1.06 | 0.963 | 0.499 | 0.369 | 1.09 | 0.932 | 0.83 | 0.153 | 0.174 | 1.03 | 0.838 | – | 1 | 0.618
